Source: US20080188542A1, “NOVEL INDOLE POLYMORPHS” (Wyeth, priority 2007, published 2008)
≈ marks a conversion by molar mass, not a printed value.

Test: Solubility of polymorph A at room temperature (measurements taken at equilibrium)
Assay type: physicochemical
Details: for solubility: thermodynamic from solid
Procedure: The polymorph A of [1-(4-tert-Butylbenzyl)-5-(3-methylphenyl)-1H-indol-3-yl](oxo)acetic acid of this invention can also be characterized by its solubility rate which is shown in FIG. 5. The solubility rate intrinsic dissolution was conducted in pH 7.5 phosphate buffer medium using USP apparatus 2 (paddle) at 50 rpm. The dissolution rate may be influenced by disk rotation speed and other conditions. The solubility of polymorph A of [1-(4-tert-Butylbenzyl)-5-(3- methylphenyl)-1H-indol-3-yl](oxo)acetic acid has been determined in a number of solvents and the results are listed in Table 5. The solubilities listed in Table 5 are based on measurements taken at equilibrium.

## Cc1cccc(-c2ccc3c(c2)c(C(=O)C(=O)O)cn3Cc2ccc(C(C)(C)C)cc2)c1 [Polymorph A, [1-(4-tert-Butylbenzyl)-5-(3-methylphenyl)1H-indol-3-yl](oxo)acetic acid]
2% polysorbate 80/0.5% methylcellulose, aqueous with cosolvent or surfactant or cyclodextrin, 2% Polysorbate80/0.5% Methylcellulose
  solubility: 1.09 mg/mL (≈ 2.56 mM)
Capryol 90
  Solubility of Polymorph A: 73.8 mg/g
Cremophore EL
  Solubility of Polymorph A: 290 mg/g
Labrasol
  Solubility of Polymorph A: >160 mg/g
PEG 200
  Solubility of Polymorph A: >100 mg/g
PEG 400
  Solubility of Polymorph A: >100 mg/g
Phosal 53 MCT
  Solubility of Polymorph A: 311 mg/g
Polysorbate 80
  Solubility of Polymorph A: >200 mg/g
Organic solvent or mixture, Acetone
  solubility: 277 mg/mL (≈ 651 mM)
Organic solvent or mixture, DMSO
  solubility: > 500 mg/mL
Organic solvent or mixture, Ethanol
  solubility: 12.2 mg/mL (≈ 28.8 mM)
Organic solvent or mixture, Propylene Carbonate
  solubility: 103 mg/mL (≈ 243 mM)
Organic solvent or mixture, Propylene Glycol
  solubility: 7.1 mg/mL (≈ 16.7 mM)
Deionized Water
  solubility: 0.024 mg/mL (≈ 0.0564 mM)
